Measured values from ChEMBL document CHEMBL1157002, “SAR of a series of inhaled A(2A) agonists and comparison of inhaled pharmacokinetics in a preclinical model with clinical pharmacokinetic data” (Bioorg Med Chem Lett, 2009).
Activity calls are given as the source filed them. No cut-off for these calls is given here.

Assays:
[1] = Intrinsic clearance in human liver microsomes; type: ADME, Microsome
Rattus norvegicus [2] = test: Unbound clearance in rat at 1 mg/kg, iv; type: ADME, organism-based; parameters: dose 1 mg/kg, route intravenous; conditions: in vivo
Rattus norvegicus [3] = test: Dose normalized fCmax in rat (dose normalized to 1 mg/kg); type: ADME, organism-based; parameters: dose 1 mg/kg; conditions: in vivo
Adenosine receptor A2a = Adenosine receptor A2a (Homo sapiens, UniProt P29274)
Adenosine receptor A2a, sequence (P29274 whole entry): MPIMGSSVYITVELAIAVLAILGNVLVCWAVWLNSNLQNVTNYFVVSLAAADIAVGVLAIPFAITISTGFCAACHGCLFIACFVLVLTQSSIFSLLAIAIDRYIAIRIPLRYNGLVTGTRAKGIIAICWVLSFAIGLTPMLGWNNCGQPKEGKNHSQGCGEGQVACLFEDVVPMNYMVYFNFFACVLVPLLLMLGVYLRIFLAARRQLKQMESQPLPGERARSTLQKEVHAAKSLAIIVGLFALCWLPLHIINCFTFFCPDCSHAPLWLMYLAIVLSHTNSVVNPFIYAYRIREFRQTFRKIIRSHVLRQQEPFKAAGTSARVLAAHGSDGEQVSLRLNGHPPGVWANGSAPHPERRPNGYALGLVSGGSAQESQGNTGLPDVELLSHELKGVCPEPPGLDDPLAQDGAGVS
Description: Agonist activity at adenosine A2A receptor in fMLP-stimulated human neutrophils assessed as inhibition of superoxide production by colorimetric analysis

[4] = Lipophilicity, log D at pH 7.4; type: physicochemical; conditions: buffer
Homo sapiens [5] = test: Toxicity in human assessed as increase of sitting blood pressure at 200 to 1600 ug administered by aerosol device; type: organism-based; conditions: in vivo, inhaled_or_intranasal
Homo sapiens [6] = test: Dose normalized fCmax in human at 1600 ug administered by aerosol device measured up to 4 hrs (dose normalized to 1 mg/kg); type: ADME, organism-based; parameters: dose 1 mg/kg; conditions: in vivo
[7] = Half life in human at 100 to 1600 ug administered by aerosol device; type: ADME, organism-based; conditions: in vivo, inhaled or intranasal
Homo sapiens [8] = test: Dose normalized fCmax in human at 100 ug administered by aerosol device measured up to 4 hrs (dose normalized to 1 mg/kg); type: ADME, organism-based; parameters: dose 1 mg/kg; conditions: in vivo
Homo sapiens [9] = test: Dose normalized fCmax in human at 200 ug administered by aerosol device measured up to 4 hrs (dose normalized to 1 mg/kg); type: ADME, organism-based; parameters: dose 1 mg/kg; conditions: in vivo
Homo sapiens [10] = test: Dose normalized fCmax in human at 400 ug administered by aerosol device measured up to 4 hrs (dose normalized to 1 mg/kg); type: ADME, organism-based; parameters: dose 1 mg/kg; conditions: in vivo
Homo sapiens [11] = test: Dose normalized fCmax in human at 800 ug administered by aerosol device measured up to 4 hrs (dose normalized to 1 mg/kg); type: ADME, organism-based; parameters: dose 1 mg/kg; conditions: in vivo
Cavia porcellus [12] = species on record: Cavia porcellus; test: Inhibition of capsaicin-induced bronchoconstriction in guinea pig at 10 ug up to 8 hrs; type: functional, organism-based
Cavia porcellus [13] = test: Toxicity in it dosed guinea pig assessed as decrease of diastolic blood pressure; type: organism-based, Artery; conditions: in vivo, inhaled_or_intranasal
Cavia porcellus [14] = test: Inhibition of capsaicin-induced bronchoconstriction in it dosed guinea pig up to 5 hrs; type: functional, organism-based

## CCNC(=O)[C@H]1O[C@@H](n2cnc3c(NCC(c4ccccc4)c4ccccc4)nc(C(=O)NCCNC(=O)NCCN(C(C)C)C(C)C)nc32)[C@H](O)[C@@H]1O
[1]
  microsomal CLint: 81 µL/min/mg
Rattus norvegicus [2]
  CL free: 45 L/h/kg
Rattus norvegicus [3]
  Cmax_unbound: 12.3 nM
Adenosine receptor A2a
  IC50: 5 nM
[4]
  logD: 0.9

## CCNC(=O)[C@H]1O[C@@H](n2cnc3c(NCC(c4ccccc4)c4ccccc4)nc(CNC(=O)NCCN(C(C)C)C4CCCC4)nc32)[C@H](O)[C@@H]1O
Rattus norvegicus [2]
  CL free: 210 L/h/kg
Rattus norvegicus [3]
  Cmax_unbound: 1.8 nM
[4]
  logD: 2

## CCNC(=O)[C@H]1O[C@@H](n2cnc3c(NCC(c4ccccc4)c4ccccc4)nc(C(=O)NCCNC(=O)NCc4ccc(CN(CC)CC)cc4)nc32)[C@H](O)[C@@H]1O
Adenosine receptor A2a
  IC50: 5 nM

## CCNC(=O)[C@H]1O[C@@H](n2cnc3c(NCC(c4ccccc4)c4ccccc4)nc(C(=O)NCCNC(=O)NCc4ccccc4)nc32)[C@H](O)[C@@H]1O
Adenosine receptor A2a
  IC50: 6 nM

## CCNC(=O)[C@H]1O[C@@H](n2cnc3c(NCC(c4ccccc4)c4ccccc4)nc(C(=O)NCCNC(=O)NCCc4ccccc4)nc32)[C@H](O)[C@@H]1O
Adenosine receptor A2a
  IC50: 10 nM

## CCNC(=O)[C@H]1O[C@@H](n2cnc3c(NCC(c4ccccc4)c4ccccc4)nc(C(=O)NCCNC(=O)NC4CCN(c5ccccn5)CC4)nc32)[C@H](O)[C@@H]1O [UK432097]
[1]
  microsomal CLint: > 255 µL/min/mg
Homo sapiens [5]
  Activity: Toxic
Homo sapiens [6]
  Cmax_unbound: 0.12 nM
Rattus norvegicus [2]
  CL free: 330 L/h/kg
[7]
  half-life: 3 h
Homo sapiens [8]
  Cmax_unbound: 0.45 nM
Homo sapiens [9]
  Cmax_unbound: 0.3 nM
Homo sapiens [10]
  Cmax_unbound: 0.19 nM
Homo sapiens [11]
  Cmax_unbound: 0.19 nM
Cavia porcellus [12]
  Activity: Active
Rattus norvegicus [3]
  Cmax_unbound: 0.2 nM

## CCNC(=O)[C@H]1O[C@@H](n2cnc3c(NCC(c4ccccc4)c4ccccc4)nc(C(=O)NCCNC(=O)NCCN(C(C)C)C4CCCC4)nc32)[C@H](O)[C@@H]1O
Adenosine receptor A2a
  IC50: 7 nM

## CCNC(=O)[C@H]1O[C@@H](n2cnc3c(NCC(c4ccccc4)c4ccccc4)nc(C(=O)NCCNC(=O)NCCN4CCCCC4)nc32)[C@H](O)[C@@H]1O
Adenosine receptor A2a
  IC50: 5 nM

## CCNC(=O)[C@H]1O[C@@H](n2cnc3c(NCC(c4ccccc4)c4ccccc4)nc(C(=O)NCCNC(=O)NCc4ccccn4)nc32)[C@H](O)[C@@H]1O
Adenosine receptor A2a
  IC50: 4 nM

## O=C(NCCNC(=O)c1nc(NCC(c2ccccc2)c2ccccc2)c2ncn([C@@H]3O[C@H](CO)[C@@H](O)[C@H]3O)c2n1)NCCN1CCCCC1
Adenosine receptor A2a
  IC50: 45 nM

## CCNC(=O)[C@H]1O[C@@H](n2cnc3c(NCC(c4ccccc4)c4ccccc4)nc(C(=O)NCCN(C)C(=O)NCCN4CCCCC4)nc32)[C@H](O)[C@@H]1O
Adenosine receptor A2a
  IC50: 305 nM

## CCNC(=O)[C@H]1O[C@@H](n2cnc3c(NCC(c4ccccc4)c4ccccc4)nc(C(=O)NCCNC(=O)NCCN4CCc5ccccc5C4)nc32)[C@H](O)[C@@H]1O
Adenosine receptor A2a
  IC50: 10 nM

## CCNC(=O)[C@H]1O[C@@H](n2cnc3c(NCC(c4ccccc4)c4ccccc4)nc(C(=O)NCCNC(=O)NCc4ccc(C(=O)O)cc4)nc32)[C@H](O)[C@@H]1O
Adenosine receptor A2a
  IC50: 0.4 nM

## CCNC(=O)[C@H]1O[C@@H](n2cnc3c(NCC(c4ccccc4)c4ccccc4)nc(CNC(=O)NCCN4CCCCC4)nc32)[C@H](O)[C@@H]1O
Cavia porcellus [13]
  Activity: Non-toxic
Cavia porcellus [14]
  Activity: Active
